In patent US6841548B2, “Pharmaceutical preparations containing estra-1,3,5(10)-triene derivatives” (Schering AG, priority 1994, dated 2005):
Values belong to the molecule of their own block, whether it stands above or below them.

Experiments:
ovariectomated rats [1] = experiment: Hepatic parameters: total cholesterol levels in serum, enzymatic test; type: in vivo, rat; conditions: for Total cholesterol levels (mean value ± standard deviation): Experiment A
Procedure: (§1) The laboratory animals, adult female rats (breeder: HSD/WIN:WU) were ovariectomated on day 14. Treatment started two weeks later by a single oral application per day of the respective test substance. The dosages given for esters refer to the steroid portion of the substances. The tests were made in three groups (A, B, C) at various points in time.
(§2) The procedure of allocating animals to groups was randomized. The experiment was carried out as a block test. The animals were weighed at the beginning and at the end of the experiment.
(§3) The start of treatment was defined as day 1 (=d1), treatment was finished on day 7 (=d7); the animals were killed on day 8, various organs (uteri, adrenal glands, liver) were removed, weighed and deep-frozen (−196° C.) for further examination.
(§4) Blood was taken from the retrobulbar plexus under ether anaesthesia prior to treatment (d0), and on (d4) and (d8). IGF1, angiotensin I, cholesterol and HDL cholesterol were determined in the serum obtained.
(§5) cholesterol/HDL: enzymatic tests, photometric determination, reagents by Dr Bruno Lange GmbH.

ovariectomated rats [2] = experiment: Oral estrogen treatment: serum IGF1 (somatomedin C), RIA; type: in vivo, rat; design: unit not given here; conditions: Experiment A
Text: as §1, with “time. This is why there is a deviation in control group values. The tests of series A, B, and C can therefore be compared among each other if the values for the respective control groups are taken into account.” for “time.”
as §2, §3, §4
IGF1: RIA by bioMérieux Co.;

ovariectomated rats [3] = experiment: Oral estrogenic effects: uterus weights in ovariectomated rats; type: in vivo, rat
Text: as §1, with “time. This is why there is a deviation in control group values. The tests of series A, B, and C can therefore be compared among each other if the values for the respective control groups are taken into account.” for “time.”
as §2, §3

ovariectomated rats [4] = experiment: Hepatic parameters: serum angiotensin I, modified RIA for renin activity; type: in vivo, rat; design: Angiotensin I: unit not given here; conditions: for Angiotensin I: Experiment A; for Influence on the angiotensin I level, summary in words: dose-action relationships on days 4 and 8
Text: as §1, with “time. This is why there is a deviation in control group values. The tests of series A, B, and C can therefore be compared among each other if the values for the respective control groups are taken into account.” for “time.”
as §2, §3, §4
angiotensin: modified RIA for renin activity by Sorin Co.

ovariectomated rats [5] = experiment: Oral estrogenic effects: weights of adrenal glands in ovariectomated rats; type: in vivo, rat
Text: as §1, with “time. This is why there is a deviation in control group values. The tests of series A, B, and C can therefore be compared among each other if the values for the respective control groups are taken into account.” for “time.”
as §2, §3

ovariectomated rats [6] = experiment: Hepatic parameters: HDL cholesterol levels in serum, enzymatic test; type: in vivo, rat; conditions: Experiment A
Text: as §1, with “time. This is why there is a deviation in control group values. The tests of series A, B, and C can therefore be compared among each other if the values for the respective control groups are taken into account.” for “time.”
as §2, §3, §4, §5

[7] = 100 μg/animal/day p.o. d1-d7, d 0 (prior to treatment)
[8] = 100 μg/animal/day p.o. d1-d7, d 4
[9] = 100 μg/animal/day p.o. d1-d7, d 8
[10] = Experiment A, 0.1 μg/animal/day p.o. d1-d7
[11] = Experiment A, 1 μg/animal/day p.o. d1-d7
[12] = Experiment A, 10 μg/animal/day p.o. d1-d7
[13] = Experiment A, 100 μg/animal/day p.o. d1-d7
[14] = Experiment B, 10 μg/animal/day p.o. d1-d7
[15] = day 4, 0.1 μg/animal/day p.o. d1-d7
[16] = day 4, 1 μg/animal/day p.o. d1-d7
[17] = day 4, 10 μg/animal/day p.o. d1-d7
[18] = day 4, 100 μg/animal/day p.o. d1-d7
[19] = day 8, 0.1 μg/animal/day p.o. d1-d7
[20] = day 8, 1 μg/animal/day p.o. d1-d7
[21] = day 8, 10 μg/animal/day p.o. d1-d7
[22] = day 8, 100 μg/animal/day p.o. d1-d7
[23] = Experiment C, 10 μg/animal/day p.o. d1-d7

Angiotensin I (ovariectomated rats [4]; [15]): 376.2 ± 48.3 | Angiotensin I (ovariectomated rats [4]; [16]): 359.8 ± 53.4 | Angiotensin I (ovariectomated rats [4]; [17]): 412.8 ± 66.6 | Angiotensin I (ovariectomated rats [4]; [18]): 497.7 ± 69.0 | Angiotensin I (ovariectomated rats [4]; [19]): 449.5 ± 55.1 | Angiotensin I (ovariectomated rats [4]; [20]): 392.9 ± 32.0 | Angiotensin I (ovariectomated rats [4]; [21]): 335.5 ± 24.9 | Angiotensin I (ovariectomated rats [4]; [22]): 464.3 ± 16.7 | Effect on angiotensin I (AI) values, in words (ovariectomated rats [4]; at any dose throughout the experiment): no recognizable effect | HDL cholesterol levels (mean value ± standard deviation) (ovariectomated rats [6]; [15]): 49.1 ± 7.8 mg/dL | HDL cholesterol levels (mean value ± standard deviation) (ovariectomated rats [6]; [16]): 50.9 ± 6.1 mg/dL | HDL cholesterol levels (mean value ± standard deviation) (ovariectomated rats [6]; [17]): 55.0 ± 6.9 mg/dL | HDL cholesterol levels (mean value ± standard deviation) (ovariectomated rats [6]; [18]): 43.7 ± 7.6 mg/dL | HDL cholesterol levels (mean value ± standard deviation) (ovariectomated rats [6]; [19]): 51.0 ± 4.6 mg/dL | HDL cholesterol levels (mean value ± standard deviation) (ovariectomated rats [6]; [20]): 52.3 ± 4.1 mg/dL | HDL cholesterol levels (mean value ± standard deviation) (ovariectomated rats [6]; [21]): 51.5 ± 3.9 mg/dL | HDL cholesterol levels (mean value ± standard deviation) (ovariectomated rats [6]; [22]): 46.0 ± 9.2 mg/dL
Compound: C[C@]12CC[C@@H]3c4ccc(O)cc4CC[C@H]3[C@@H]1CC[C@@H]2O [Example E2, estradiol]
Effect on cholesterol levels in the blood (total and HDL), in words (ovariectomated rats [1]; all doses): did not reduce cholesterol levels in the blood | IGF1 (= somatomedin C) (ovariectomated rats [2]; [7]): 717.4 ± 80.8 | IGF1 (= somatomedin C) (ovariectomated rats [2]; [8]): 623.6 ± 100.0 | IGF1 (= somatomedin C) (ovariectomated rats [2]; [9]): 601.1 ± 108.8 | Uterus weights (mean value) (ovariectomated rats [3]; [10]): 123.3 mg | Uterus weights (mean value) (ovariectomated rats [3]; [11]): 128.9 mg | Uterus weights (mean value) (ovariectomated rats [3]; [12]): 130.7 mg | Uterus weights (mean value) (ovariectomated rats [3]; [13]): 285.4 mg | Uterus weights (mean value) (ovariectomated rats [3]; [14]): 182.3 mg | Influence on the angiotensin I level, summary in words (ovariectomated rats [4]): at best has marginal stimulating influence | Weights of adrenal glands (mean value) (ovariectomated rats [5]; [10]): 49.3 mg | Weights of adrenal glands (mean value) (ovariectomated rats [5]; [11]): 57.9 mg | Weights of adrenal glands (mean value) (ovariectomated rats [5]; [12]): 61.6 mg | Weights of adrenal glands (mean value) (ovariectomated rats [5]; [13]): 54.4 mg | Weights of adrenal glands (mean value) (ovariectomated rats [5]; [14]): 54.4 mg

Total cholesterol levels (mean value ± standard deviation) (ovariectomated rats [1]; [15]): 96.0 ± 15.0 mg/dL | Total cholesterol levels (mean value ± standard deviation) (ovariectomated rats [1]; [16]): 108.5 ± 10.3 mg/dL | Total cholesterol levels (mean value ± standard deviation) (ovariectomated rats [1]; [17]): 92.4 ± 12.1 mg/dL | Total cholesterol levels (mean value ± standard deviation) (ovariectomated rats [1]; [18]): 24.5 ± 14.4 mg/dL | Total cholesterol levels (mean value ± standard deviation) (ovariectomated rats [1]; [19]): 91.1 ± 18.3 mg/dL | Total cholesterol levels (mean value ± standard deviation) (ovariectomated rats [1]; [20]): 101.4 ± 6.3 mg/dL | Total cholesterol levels (mean value ± standard deviation) (ovariectomated rats [1]; [21]): 81.9 ± 12.6 mg/dL | Total cholesterol levels (mean value ± standard deviation) (ovariectomated rats [1]; [22]): 18.6 ± 8.3 mg/dL | Angiotensin I (ovariectomated rats [4]; [15]): 380.8 ± 35.8 | Angiotensin I (ovariectomated rats [4]; [16]): 383.8 ± 47.1 | Angiotensin I (ovariectomated rats [4]; [17]): 435.2 ± 53.8 | Angiotensin I (ovariectomated rats [4]; [18]): 734.0 ± 75.7 | Angiotensin I (ovariectomated rats [4]; [19]): 462.2 ± 71.3 | Angiotensin I (ovariectomated rats [4]; [20]): 425.9 ± 43.9 | Angiotensin I (ovariectomated rats [4]; [21]): 373.4 ± 42.3 | Angiotensin I (ovariectomated rats [4]; [22]): 668.2 ± 68.6 | Effect on angiotensin I (AI) values, in words (ovariectomated rats [4]; dose of 10 μg/day): no clear effect on AI | Influence on the angiotensin I level, summary in words (ovariectomated rats [4]): clearly below those for EE | HDL cholesterol levels (mean value ± standard deviation) (ovariectomated rats [6]; [15]): 57.6 ± 6.5 mg/dL | HDL cholesterol levels (mean value ± standard deviation) (ovariectomated rats [6]; [16]): 57.1 ± 7.1 mg/dL | HDL cholesterol levels (mean value ± standard deviation) (ovariectomated rats [6]; [17]): 54.6 ± 5.7 mg/dL | HDL cholesterol levels (mean value ± standard deviation) (ovariectomated rats [6]; [18]): 13.2 ± 14.0 mg/dL | HDL cholesterol levels (mean value ± standard deviation) (ovariectomated rats [6]; [19]): 57.3 ± 6.0 mg/dL | HDL cholesterol levels (mean value ± standard deviation) (ovariectomated rats [6]; [20]): 59.6 ± 6.8 mg/dL | HDL cholesterol levels (mean value ± standard deviation) (ovariectomated rats [6]; [21]): 49.9 ± 6.0 mg/dL | HDL cholesterol levels (mean value ± standard deviation) (ovariectomated rats [6]; [22]): 10.7 ± 8.2 mg/dL
Compound: C#C[C@]1(O)CC[C@H]2[C@@H]3CCc4cc(OS(=O)(=O)N(CC)CC)ccc4[C@H]3CC[C@@]21C [J 271, 17β-Hydroxy-19-nor-17α-pregna-1,3,5(10)-triene-20-in-3-yl N,N-diethyl-sulfamate]
Drop in total and HDL cholesterol levels in the blood, in words (ovariectomated rats [1]; highest dose, versus EE): still recognizably lower than that caused by EE | Effect on cholesterol levels in the blood (total and HDL), in words (ovariectomated rats [1]; up to 10 μg): did not reduce cholesterol levels in the blood | IGF1 (= somatomedin C) (ovariectomated rats [2]; [7]): 826.4 ± 96.7 | IGF1 (= somatomedin C) (ovariectomated rats [2]; [8]): 593.7 ± 57.0 | IGF1 (= somatomedin C) (ovariectomated rats [2]; [9]): 351.5 ± 32.6 | Uterus weights (mean value) (ovariectomated rats [3]; [10]): 144.2 mg | Uterus weights (mean value) (ovariectomated rats [3]; [11]): 289.9 mg | Uterus weights (mean value) (ovariectomated rats [3]; [12]): 605.1 mg | Uterus weights (mean value) (ovariectomated rats [3]; [13]): 563.6 mg | Uterus weights (mean value) (ovariectomated rats [3]; [14]): 540.8 mg | Oral dose at which the effect on uterus growth has reached a plateau (ovariectomated rats [3]; oral): 0.01 mg/animal/day | Effects on uterus growth, comparison in words (ovariectomated rats [3]; oral, versus EE and estradiol): clear superiority to EE and great superiority to estradiol | Effect on angiotensin I (AI) values, in words (ovariectomated rats [4]; dose of 100 μg/day): increases in AI values but these are significantly lower than those observed under the influence of EE or J 824 | Weights of adrenal glands (mean value) (ovariectomated rats [5]; [10]): 57.1 mg | Weights of adrenal glands (mean value) (ovariectomated rats [5]; [11]): 57.4 mg | Weights of adrenal glands (mean value) (ovariectomated rats [5]; [12]): 63.1 mg | Weights of adrenal glands (mean value) (ovariectomated rats [5]; [13]): 66.5 mg | Weights of adrenal glands (mean value) (ovariectomated rats [5]; [14]): 57.9 mg

Compound: CCN(CC)S(=O)(=O)Oc1ccc2c(c1)CC[C@@H]1[C@@H]2CC[C@]2(C)[C@@H](O)CC[C@@H]12 [J 981, 17β-Hydroxy-estra-1,3,5(10)-trien-3-yl N,N-diethyl-sulfamate]
Uterus weights (mean value) (ovariectomated rats [3]; [14]): 225.34 mg | melting point: 175 to 176 °C | Weights of adrenal glands (mean value) (ovariectomated rats [5]; [14]): 50.5 mg

Compound: CCN(CC)S(=O)(=O)Oc1ccc2c(c1)CC[C@@H]1[C@@H]2CC[C@]2(C)[C@@H](O)[C@H](O)C[C@@H]12 [J 984, 16α,17β-Dihydroxy-estra-1,3,5(10)-trien-3-yl N,N-diethyl-sulfamate]
Uterus weights (mean value) (ovariectomated rats [3]; [23]): 245.63 mg | melting point: 121 to 124 °C | Weights of adrenal glands (mean value) (ovariectomated rats [5]; [23]): 59.3 mg

Compound: CN(C)S(=O)(=O)Oc1ccc2c(c1)CC[C@@H]1[C@@H]2CC[C@]2(C)[C@@H](O)[C@H](O)C[C@@H]12 [J 989, 16α,17β-Dihydroxy-estra-1,3,5(10)-trien-3-yl N,N-dimethyl-sulfamate]
Uterus weights (mean value) (ovariectomated rats [3]; [23]): 182.79 mg | melting point: 180 to 181 °C | Weights of adrenal glands (mean value) (ovariectomated rats [5]; [23]): 52.8 mg
